Data taken from US10434181B2, “Oligomer-containing benzamide-based compounds” (Nektar Therapeutics, priority 2012, dated 2019).
“And” between values parts separate entries of the source, which are not always exact repeats. Identical values can stand only once. Like-named read-outs stand apart in the source and are kept apart here. Marks after values point to notes of the source that are not given here.

Columns and labels:
[1] = biological target: T1, 5HT3A receptors (serotonin 3A receptors) (Homo sapiens, UniProt P46098); experiment: Competition binding assay (serotonin 3A receptors), [3H]GR65630; settings: for IC50: [3H]GR65630 competition, HEK 293 membranes expressing 5HT3A; for Fold-change Relative to Parent: IC50 relative to metoclopramide, 5HT3A binding
T1 construct: expressed in transfected cells
T1 sequence (P46098 24-478): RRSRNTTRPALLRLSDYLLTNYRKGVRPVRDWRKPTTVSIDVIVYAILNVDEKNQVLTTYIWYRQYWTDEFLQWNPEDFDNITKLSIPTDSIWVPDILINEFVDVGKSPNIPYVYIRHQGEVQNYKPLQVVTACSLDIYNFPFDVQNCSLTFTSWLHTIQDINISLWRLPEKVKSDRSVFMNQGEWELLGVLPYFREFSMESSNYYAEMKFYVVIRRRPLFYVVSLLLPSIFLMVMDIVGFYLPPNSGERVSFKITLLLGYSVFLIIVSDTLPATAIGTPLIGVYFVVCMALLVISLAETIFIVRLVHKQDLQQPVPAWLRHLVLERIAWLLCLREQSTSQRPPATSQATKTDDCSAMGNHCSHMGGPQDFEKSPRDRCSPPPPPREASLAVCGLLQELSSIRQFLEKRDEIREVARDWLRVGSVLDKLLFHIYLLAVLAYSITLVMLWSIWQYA
Procedure: [^3H] […] To start the assay, 1 uL of compound was added into 96-well v-bottom plates, followed by the addition of 50 uL of diluted membrane preparation, then finally diluted [^3H] […] The assay mixture was incubated for 60 minutes at room temperature with shaking. Following incubation, bound [^3H] […] Filter plates were air dried for two minutes, and then 50 uL of MicroScint-20 was added into each well. Radioactivity counts were quantified using a Top Count plate reader (Perkin Elmer). Data was analyzed using one-site binding competition non-linear regression curve fitting on GraphPad Prism.

[2] = biological target: T2, dopamine 2S receptor (Homo sapiens, UniProt P14416); experiment: β-Arrestin functional assay (dopamine), antagonist mode; type: cell-based; settings: for IC50: β-arrestin interaction, CHO-K1 cells expressing D2S, dopamine at EC80 (400 nM); for Fold-change Relative to Parent: IC50 relative to metoclopramide, D2S β-arrestin
T2 construct: host or cells: CHO-K1 (PathHunter eXpress β-arrestin cells)
T2 sequence (P14416 1-414 isoform P14416-2): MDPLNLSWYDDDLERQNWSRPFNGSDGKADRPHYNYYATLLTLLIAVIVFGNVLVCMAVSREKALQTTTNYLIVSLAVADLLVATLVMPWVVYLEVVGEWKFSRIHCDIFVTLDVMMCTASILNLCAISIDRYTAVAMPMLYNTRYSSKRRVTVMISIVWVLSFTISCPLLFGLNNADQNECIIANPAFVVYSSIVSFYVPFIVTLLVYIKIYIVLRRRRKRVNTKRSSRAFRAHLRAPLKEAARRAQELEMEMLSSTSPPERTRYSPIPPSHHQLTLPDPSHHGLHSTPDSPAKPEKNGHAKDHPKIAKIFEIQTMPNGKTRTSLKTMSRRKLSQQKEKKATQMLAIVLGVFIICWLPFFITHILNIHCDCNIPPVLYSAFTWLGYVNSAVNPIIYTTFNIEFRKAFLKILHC

[3] = system: human hepatocytes; experiment: MetID determination in human hepatocytes; type: in vitro ADME
Procedure: (§1) Cryopreserved human and Sprague-Dawley rat hepatocytes were thawed in a 37° C. water bath. […] Samples were obtained from separate plates for each time point during the incubation. At each sampling time, the plates were removed from the incubator, quenched by adding 100 μL cold acetonitrile, and placed in an ice bath until centrifugation at 4,000 rpm for 30 minutes at 4° C. Supernatants were stored at or below −70° C. until LC-MS/MS analysis could be conducted. The liquid chromatography system used was Agilent 1100 Autosampler, Binary Pump, DAD and Column Enclosure. Tandem mass spectrometry was conducted using a Thermo DECA XP MAX Ion Trap Mass Spectrometer. The ion source was Electrospray (+) and the LC column used was a Varian, Polaris 5 C18-A (250×2.1 mm, 5 micron) column.
(§2) Metabolic pathways of metoclopramide and conjugates were determined in rat and human hepatocytes. N-dealkylation was the major metabolic pathway for metoclopramide in rats, and metabolism in human hepatocytes was minimal. […] FIG. 2 and FIG. 3 show the metabolic pathway of for mPEG1-N-metoclopramide and mPEG4-N-metoclopramide, respectively. […] In this figure, different metabolites for each conjugate are denoted with the “M” and correspond to the designation provided in the figure for a given conjugate. For example, metabolite M1 for mPEG1-N-metoclopramide in Table 6 corresponds to M1 in FIG. 2, metabolite M2 for mPEG4-N-metoclopramide in Table 6 corresponds to M2 in FIG. 3 and metabolite M3 mPEG8-N-metoclopramide in Table 6 corresponds to M3 in FIG. 4.

[4] = system: Sprague-Dawley rat hepatocytes; experiment: MetID determination in rat hepatocytes; type: in vitro ADME; settings: for major metabolic pathway: rat hepatocytes
Procedure: as §1, §2

[5] = Chemical stability in potassium phosphate buffer; type: physicochemical; settings: 100 mM potassium phosphate buffer, pH 7.4 at 37° C. for up to 30 minutes
Procedure: FIG. 5B is a plot of the results of a chemical stability study of test articles in a 100 mM potassium phosphate buffer, pH 7.4 at 37° C. for up to thirty minutes.

[6] = biological target: T1, 5HT3A receptors (serotonin 3A receptors); settings: value in brackets after the IC50; cited from earlier work
[7] = in vivo; settings: male, Sprague Dawley, rat, plasma; for AUC(0-inf) / MRT inf / Vd / clearance / half-life: iv, 0.5 mg/kg
Procedure: (§3) Rat pharmacokinetic (“PK”) characterization was conducted in male Sprague Dawley Rats (Rattus Norvegicus) weighing between 210-260 gm (Charles River Laboratories (Hollister, Calif.)). Rats were fed a standard diet and water was available ad-libidum at all times. […] Animals were dosed either orally (2.5 mg/Kg) via gavage or intravenously (0.5 mg/kg) via the jugular vein cannula. Blood samples (˜0.15 mL) were collected through carotid artery cannula at respective time points and transferred immediately into K2EDTA-coated tubes (that contain quenching media-acetic acid, PMSF and Dichlorvos) and placed on ice. The samples were centrifuged within thirty minutes after collection at 10,000 RPM for five minutes and the resulting plasma was separated. Plasma were transferred into microfuge tubes and placed on dry ice immediately. The plasma samples were stored at approximately −70° C. until shipped on dry ice for Bioanalysis by LC/MS/MS. Urine samples were collected using metabolic cages into a tube containing citric acid (4 mg for 0-4 and 4-8 hr interval and 16 mg for 8-24 hr interval) on wet ice at the intervals specified in the study design. After the completion of urine collection at each interval, each cage was rinsed with 2 mL of deionized water (1 mL each time). The rinse was collected in the separate labeled container (containing 2 mg of citric acid) as the urine. Following this rinse another 2 ml rinse was carried out with ethanol (1 ml each time). The rinse was also collected in the separate labeled container as the urine. Samples were stored frozen at −70° C. until bioanalysis by LC/MS/MS was performed.
(§4) Pharmacokinetic parameters were determined by non-compartmental analysis using Phoenix®WinNonlin® (Version 6.3; Pharsight Corp., Mountain View, Calif.). Nominal doses and sampling times were used for the analysis. Concentrations reported as BLQ were treated as missing unless they were pre-dose; then they were set to zero. Maximum plasma concentration (Cmax) and time of observed maximum plasma analyte concentration (Tmax) were generated by Phoenix®WinNonlin®, directly from the inputed dataset. […] Area under the plasma concentration-time curve from time 0 to infinity (AUCinf) was calculated as the sum of AUClast and the last observed concentration divided by k. Total plasma clearance (CL) was calculated as Dose/AUCinf. Apparent volume of distribution at steady state (Vss) was calculated as MRTinf*CL, where MRT is the mean residence time.

[8] = biological target: T3, dopamine 2L receptors (Homo sapiens, UniProt P14416); settings: read-out: expected IC50; expected value; cited from earlier work
T3 sequence (P14416 whole entry): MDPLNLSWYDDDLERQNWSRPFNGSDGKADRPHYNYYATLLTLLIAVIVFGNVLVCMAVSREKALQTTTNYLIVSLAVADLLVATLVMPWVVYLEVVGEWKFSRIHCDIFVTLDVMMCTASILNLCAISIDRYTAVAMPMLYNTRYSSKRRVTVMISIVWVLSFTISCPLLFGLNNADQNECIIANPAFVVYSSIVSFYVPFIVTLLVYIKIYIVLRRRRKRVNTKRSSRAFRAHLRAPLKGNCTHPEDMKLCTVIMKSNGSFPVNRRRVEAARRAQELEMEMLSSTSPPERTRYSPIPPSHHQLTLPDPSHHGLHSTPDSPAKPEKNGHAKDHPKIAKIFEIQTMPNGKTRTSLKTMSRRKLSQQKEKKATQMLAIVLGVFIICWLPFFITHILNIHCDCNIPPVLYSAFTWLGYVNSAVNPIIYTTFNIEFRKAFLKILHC

[9] = biological target: T4, CYP2D6 (Homo sapiens, UniProt P10635); settings: cited from earlier work
T4 sequence (P10635 whole entry): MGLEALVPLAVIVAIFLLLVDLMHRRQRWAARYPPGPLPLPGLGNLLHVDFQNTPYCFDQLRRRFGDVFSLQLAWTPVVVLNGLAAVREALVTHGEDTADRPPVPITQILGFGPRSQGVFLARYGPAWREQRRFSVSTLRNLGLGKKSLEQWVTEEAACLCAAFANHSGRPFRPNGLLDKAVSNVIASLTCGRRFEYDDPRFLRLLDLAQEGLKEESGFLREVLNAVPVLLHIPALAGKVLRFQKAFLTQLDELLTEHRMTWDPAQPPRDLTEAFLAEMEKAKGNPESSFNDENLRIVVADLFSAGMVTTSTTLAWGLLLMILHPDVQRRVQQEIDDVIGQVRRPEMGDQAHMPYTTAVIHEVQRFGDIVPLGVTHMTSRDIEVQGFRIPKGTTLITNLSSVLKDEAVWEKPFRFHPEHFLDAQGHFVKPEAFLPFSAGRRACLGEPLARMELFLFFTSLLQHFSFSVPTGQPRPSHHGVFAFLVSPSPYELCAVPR

[10] = biological target: T3, dopamine 2L receptors; experiment: Competition binding assay (dopamine 2L receptors), [3H]methylspiperone; set-up: expressed in transfected cells; settings: for Fold-change Relative to Parent: IC50 relative to metoclopramide, D2L binding
Procedure: [^3H] Methylspiperone was diluted in assay buffer to a final concentration of 0.4 nM. To start the assay, 1 uL of compound was added into 96-well v-bottom plates, followed by the addition of 50 uL of diluted membrane preparation, then finally diluted [^3H] Methylspiperone was added. The assay mixture was incubated for 60 minutes at room temperature with shaking. Following incubation, bound [^3H] methylspiperone on 5% PEI soaked GF/B filter plates using a Filtermate Harvester (Perkin Elmer) were then washed four times with ice cold wash buffer (50 mM Tris-HCl, pH 7.5). Filter plates were air dried for two minutes, and then 50 uL of MicroScint-20 was added into each well. Radioactivity counts were quantified using a Top Count plate reader (Perkin Elmer). Data was analyzed using one-site binding competition non-linear regression curve fitting on GraphPad Prism.

[11] = Rat PK (intravenous and oral); settings: for CLRen: intravenous, 0.5 mg/kg; for Clast / Tlast: oral gavage, 2.5 mg/Kg
Procedure: as §3, §4

[12] = biological target: T5, 5HT4B receptors (serotonin 4B receptors) (Homo sapiens, UniProt Q13639); settings: value in brackets after the IC50; cited from earlier work
T5 construct: expressed in transfected cells
T5 sequence (Q13639 whole entry): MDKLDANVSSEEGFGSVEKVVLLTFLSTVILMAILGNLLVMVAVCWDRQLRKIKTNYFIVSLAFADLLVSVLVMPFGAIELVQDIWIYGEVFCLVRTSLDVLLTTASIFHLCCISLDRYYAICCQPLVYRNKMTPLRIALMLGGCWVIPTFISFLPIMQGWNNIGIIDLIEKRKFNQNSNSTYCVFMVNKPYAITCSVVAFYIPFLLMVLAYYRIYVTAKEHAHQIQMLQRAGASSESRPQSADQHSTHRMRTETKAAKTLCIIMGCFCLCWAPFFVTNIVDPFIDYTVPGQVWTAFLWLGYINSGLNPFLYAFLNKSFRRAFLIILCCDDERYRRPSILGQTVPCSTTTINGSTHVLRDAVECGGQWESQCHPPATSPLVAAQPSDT

[13] = biological target: T5, 5HT4B receptors (serotonin 4B receptors); experiment: Competition binding assay (serotonin 4B receptors), [3H]GR113808; settings: for Fold-change Relative to Parent: IC50 relative to metoclopramide, 5HT4B binding; for IC50: [3H]GR113808 competition, HEK 293 membranes expressing 5HT4B
[14] = biological target: T4, CYP2D6; experiment: Metabolic stability in human recombinant CYP2D6 enzyme; type: in vitro ADME; set-up: purchased Xenotech, LLC; settings: 1 μM, 100 pmol/mL CYP2D6, up to 30 min, 37° C.
[15] = biological target: serotonin 4 receptor (5HT4) (Homo sapiens, UniProt Q13639); experiment: cAMP accumulation assay (serotonin 4 receptors); type: cell-based
serotonin 4 receptor (5HT4), sequence (Q13639 whole entry, species assumed): as the sequence (Q13639 whole entry) above

[16] = incubation of 10 μM metoclopramide, parent and its metabolites M (FIG. 1)
[17] = [3H]methylspiperone competition, HEK 293 membranes expressing D2L, read-out: IC50
[18] = preliminary run that was not quality controlled, read-out: IC50, preliminary run
[19] = incubation of 10 μM mPEG4-N-metoclopramide, parent and its metabolites M (FIG. 3)

Compound: CCN(CC)CCNC(=O)c1cc(Cl)c(N)cc1OC [Metoclopramide, N-(2-diethylaminoethyl)-2-methoxy-4-amino-5-chlorobenzamide, reference compound]
- IC50 ([1]; IC50 [M]): 6.86e-06 M
- IC50 ([1]; IC50 [nM]): 6.86e-06 M
- IC50 [2]: 0.0821 µM and 0.0822 µM
- extent of metabolism in human hepatocytes [3]: minimal
- % of Total Metabolism, Human Hep 1 hr [3, 16]: 96.8%
- % of Total Metabolism, Human Hep 4 hr [3, 16]: 97.5%
- % of Total Metabolism, Rat Hep 1 hr [4, 16]: 87%
- % of Total Metabolism, Rat Hep 4 hr [4, 16]: 61%
- major metabolic pathway [4]: N-dealkylation
- chemical stability [5]: chemically stable
- pKi [6]: 5.9-6.4
- AUC(0-inf) [7]: 66.8 ng·h/mL
- MRT inf [7]: 32.4 min
- Vd [7]: 4.12 L/kg
- clearance [7]: 126 mL/min/kg
- half-life [7]: 30 min
- AUC ([7]; po, 2.5 mg/kg): 261 ng·h/mL
- CL/F ([7]; po, 2.5 mg/kg): 131 mL/min/kg
- Cmax ([7]; po, 2.5 mg/kg): 166 ng/mL
- Tmax ([7]; po, 2.5 mg/kg): 22.8 min
- IC50 [8]: 0.54 µM
- time-dependent inhibition of CYP2D6 (literature / known) ([9]; as reported in the literature): CYP2D6 time-dependent inhibitor
- IC50 [10, 17]: 0.0842 µM
- IC50 [10, 18]: 0.932 µM
- CLRen [11]: 7.2* mL/min/kg
- Clast [11]: 8.07 ng/mL
- Tlast [11]: 16 h

Compound: CN1[C@@H]2CC[C@H]1C[C@@H](OC(=O)c1c[nH]c3ccccc13)C2 [Tropisetron]
- pKi [12]: 8.5-8.8

Compound: CCN(CCNC(=O)c1cc(Cl)c(N)cc1OC)CCOCCOCCOC [mPEG3-N-Metoclopramide]
- Fold-change Relative to Parent [13]: 2.1
- IC50 [13]: 31.8 µM
- Fold-change Relative to Parent [1]: 23
- IC50 ([1]; read-out: IC50): 0.00016 M
- Fold-change Relative to Parent [2]: 25
- IC50 [2]: 2.05 µM and 2.06 µM
- chemical stability [5]: chemically stable
- metabolism by human recombinant CYP2D6 enzyme [14]: to a lesser degree than metoclopramide
- Fold-change Relative to Parent [10]: 41
- IC50 [10, 17]: 3.45 µM
- IC50 [10, 18]: 4.65 µM and 13.1 µM

Compound: CCN(CCNC(=O)c1cc(Cl)c(N)cc1OC)CCOCCOCCOCCOC [mPEG4-N-Metoclopramide]
- Fold-change Relative to Parent [13]: 2.0
- IC50 [13]: 30.7 µM
- Fold-change Relative to Parent [2]: 37.03
- IC50 [2]: 3.04 µM
- Fold-change Relative to Parent ([15]; IC50 relative to metoclopramide, 5HT4 cAMP): 0.62
- IC50 ([15]; cAMP accumulation, CHO-K1 cells stably expressing 5HT4): 0.644 µM and 0.64 µM
- extent of metabolism in human hepatocytes [3]: low metabolism
- % of Total Metabolism, Human Hep 1 hr [3, 19]: 100%
- % of Total Metabolism, Human Hep 4 hr [3, 19]: 93.7%
- % of Total Metabolism, Rat Hep 1 hr [4, 19]: 61.5%
- % of Total Metabolism, Rat Hep 4 hr [4, 19]: 16.1%
- major metabolic pathway [4]: N-dealkylation
- AUC(0-inf) [7]: 63.5 ng·h/mL
- MRT inf [7]: 33.6 min
- Vd [7]: 7.17 L/kg
- clearance [7]: 133 mL/min/kg
- half-life [7]: 39 min
- AUC ([7]; po, 2.5 mg/kg): 41.4 ng·h/mL
- Cmax ([7]; po, 2.5 mg/kg): 16.6 ng/mL
- Tmax ([7]; po, 2.5 mg/kg): 120 min
- bioavailability ([7]; po, 2.5 mg/kg): 14.5%
- Fold-change Relative to Parent [10]: 38.7
- IC50 [10, 17]: 3.26 µM
- CLRen [11]: 9.0 mL/min/kg
- Clast [11]: 3 ng/mL
- Tlast [11]: 5 h

Compound: CCN(CCNC(=O)c1cc(Cl)c(N)cc1OC)CCOCCOCCOCCOCCOC [mPEG5-N-Metoclopramide]
- Fold-change Relative to Parent [13]: 3.8
- IC50 [13]: 58.1 µM
- Fold-change Relative to Parent [1]: 156
- IC50 ([1]; read-out: IC50): 0.00107 M
- Fold-change Relative to Parent [2]: 44.1
- IC50 [2]: 3.62 µM
- chemical stability [5]: chemically stable
- metabolism by human recombinant CYP2D6 enzyme [14]: to a lesser degree than metoclopramide
- Fold-change Relative to Parent [10]: 98.5
- IC50 [10, 17]: 8.29 µM
- IC50 [10, 18]: 15.1 µM

Compound: CCN(CCNC(=O)c1cc(Cl)c(N)cc1OC)CCOCCOCCOCCOCCOCCOC [mPEG6-N-Metoclopramide]
- Fold-change Relative to Parent [13]: 3.8
- IC50 [13]: 57.8 µM
- Fold-change Relative to Parent [1]: 129
- IC50 ([1]; read-out: IC50): 0.000885 M
- Fold-change Relative to Parent [2]: 52.05
- IC50 [2]: 4.27 µM and 4.28 µM
- chemical stability [5]: chemically stable
- metabolism by human recombinant CYP2D6 enzyme [14]: to a lesser degree than metoclopramide
- Fold-change Relative to Parent [10]: 92.1
- IC50 [10, 17]: 7.75 µM

Compound: Fc1ccc([C@@H]2CCNC[C@H]2COc2ccc3c(c2)OCO3)cc1 [paroxetine]
- time-dependent inhibition of CYP2D6 (literature / known) [9]: time-dependent inhibitor of CYP2D6
